The record followed here is patent publication US7875618B2, “Substituted imidazo[1,5-a]quinoxalines useful as inhibitors of phosphodiesterase 10 for the treatment of neurological and other disorders” (Wyeth, priority 2007, dated 2011).

The structures appear in SMILES notation.

The target of the first assay is PDE10 from pig striatum (Sus scrofa, UniProt A0A287B941). Kind of assay: Inhibition of PDE10 from pig striatum ([3H]-cAMP SPA, Methods A and B). Format: biochemical. Particulars: PDE10 pig. The procedure:
Striatum from male Wistar rats (180-200 g), male hybrid pigs (150 kg) and male guinea pigs (CRL (HA), 500 g) respectively were collected and frozen at −70° C. At the day of preparation 0.5 g striatum was homogenised in 10 ml 50 mM Tris/Mg-buffer at 4° C. and centrifuged for one hour at 100000 g. The supernatant is called the cytosolic fraction and was removed and stored on ice. The pellet was resuspended in the same buffer, but containing 1% Triton and incubated for 45 min at 4° C. Both fractions were independently applied onto a 5 ml Hi Trap™ QHP column at the Äkta-FPLC. After washing the columns the bound PDE protein was eluted with an increasing sodium chloride gradient (0 mM-500 mM sodium chloride) in 50 mM Tris/Mg-buffer at 4° C. for the cytosolic fraction and in the presence of 1% Triton for the membrane fraction. […] The fractions with PDE10-activity were pooled and frozen in aliquots until use at −20° C. PDE10 activity was determined in a one step procedure in microtiter plates. […] Nonspecific activity was tested without the enzyme. The reaction was initiated by addition of the substrate solution and was carried out at 37° C. for 30 minutes. Enzymatic activity was stopped by addition of 25 μl YSi-SPA-beads (Amersham-Pharmacia). One hour later the mixture was measured in a liquid scintillation counter for microtiter plates (Microbeta Trilux). To pipette the incubation mixture a robot Biomek (Fa. Beckman) is used. […] For determination of IC50 values the Hill-plot, 2-parameter-model, was used. […] Striatum from male hybrid pigs (150 kg) were collected and frozen at −70° C. At the day of preparation 0.5 g striatum was homogenised in 10 ml 50 mM Tris/Mg-buffer at 4° C. and centrifuged for one hour at 100000 g. The supernatant was removed and the pellet was resuspended in the same buffer, but containing 1% Triton and incubated for 45 min at 4° C. The membrane fraction was applied onto a 5 ml Hi Trap™ QHP column at the Äkta-FPLC. After washing the column the bound PDE protein was eluted with an increasing sodium chloride gradient (0 mM-500 mM sodium chloride) in 50 mM Tris/Mg-buffer at 4° C. in the presence of 1% Triton. […] The fractions with PDE10-activity were pooled and frozen in aliquots until use at −20° C. PDE10 activity was determined in a one step procedure in microtiterplates. […] Nonspecific activity was tested without the enzyme. The reaction was initiated by addition of the substrate solution and was carried out at 37° C. for 30 minutes. Enzymatic activity was stopped by addition of 25 μl YSi-SPA-beads (Amersham-Pharmacia). One hour later the mixture was measured in a liquid scintillation counter for microtiterplates (Microbeta Trilux). To pipette the incubation mixture a robot Biomek (Fa. Beckman) is used. […] For determination of IC50 values the Hill-plot, 2-parameter-model, was used.
On to `CCc1nc(C)c2c(N)nc3ccc(N4CCCCC4)cc3n12` [Example 1, 1-Ethyl-3-methyl-8-piperidin-1-yl-imidazo(1,5-a)quinoxalin-4-ylamine], for which the IC50 (commonly the concentration needed to halve the response being measured) was at least 100 nM.

The molecule `Cc1nc(C2CCCCC2)n2c1c(N)nc1ccc(F)cc12` [Example 2, 1-Cyclohexyl-8-fluoro-3-methyl-imidazo(1,5-a)quinoxalin-4-yl-amine] showed an IC50 of 10 to 100 nM.

In the case of `Cc1nc(-c2ccccc2Cl)n2c1c(N)nc1ccc(F)cc12` [Example 8, 1-(2-Chlorphenyl)-8-fluoro-3-methyl-imidazo(1,5-a)quinoxalin-4-ylamine], the IC50 is at most 10 nM.

Molecule `CCCc1nc(C)c2c(C)nc3ccccc3n12` [Example 9, 3,4-Dimethyl-1-propyl-imidazo(1,5-a)quinoxaline] displayed a concentration for half-maximal inhibition (IC50) of 10 to 100 nM.

As for `CCCc1nc(C)c2c(OC)nc3ccc(F)cc3n12` [Example 18, 8-Fluoro-4-methoxy-3-methyl-1-propyl-imidazo(1,5-a)quin-oxaline], the 50% inhibitory concentration (IC50) lay within 10 to 100 nM.

`Cc1nc(-c2cc(Cl)ccc2Cl)n2c1c(C)nc1ccc(F)cc12` [Example 19, 1-(2,5-Dichlorophenyl)-8-fluoro-3,4-dimethylimidazo[1,5-a]quinoxaline] returned an IC50 of 10 to 100 nM.

With `Cc1nc(-c2cc(Cl)cc(Cl)c2)n2c1c(C)nc1ccc(F)cc12` [Example 20, 1-(3,5-Dichlorophenyl)-8-fluoro-3,4-dimethylimidazo[1,5-a]quinoxaline], the IC50 is 10 to 100 nM.

As to `Cc1nc(-c2cccc(Cl)c2)n2c1c(C)nc1ccc(F)cc12` [Example 21, 1-(3-Chlorophenyl)-8-fluoro-3,4-dimethylimidazo[1,5-a]quinoxaline], the IC50 fell in the range of 10 to 100 nM.

In the case of `Cc1nc(-c2ccc(F)cc2F)n2c1c(C)nc1ccc(F)cc12` [Example 22, 1-(2,4-Difluorophenyl)-8-fluoro-3,4-dimethylimidazo[1,5-a]quinoxaline], the IC50 fell in the range of 10 to 100 nM.

`COc1ccccc1-c1nc(C)c2c(C)nc3ccc(F)cc3n12` [Example 23, 8-Fluoro-1-(2-methoxyphenyl)-3,4-dimethylimidazo[1,5-a]quinoxaline] gave an IC50 of 10 to 100 nM.

`COc1cccc(-c2nc(C)c3c(C)nc4ccc(F)cc4n23)c1` [Example 24, 8-Fluoro-1-(3-methoxyphenyl)-3,4-dimethylimidazo[1,5-a]quinoxaline] gave a half-maximal inhibitory concentration (IC50) of at most 10 nM.

In a further assay the target is T1, human recombinant PDE10A (Homo sapiens, UniProt Q9Y233).
T1 construct: made in house; host or cells: SF21 insect cells (baculovirus)
T1 sequence (Q9Y233 1-779 isoform Q9Y233-1): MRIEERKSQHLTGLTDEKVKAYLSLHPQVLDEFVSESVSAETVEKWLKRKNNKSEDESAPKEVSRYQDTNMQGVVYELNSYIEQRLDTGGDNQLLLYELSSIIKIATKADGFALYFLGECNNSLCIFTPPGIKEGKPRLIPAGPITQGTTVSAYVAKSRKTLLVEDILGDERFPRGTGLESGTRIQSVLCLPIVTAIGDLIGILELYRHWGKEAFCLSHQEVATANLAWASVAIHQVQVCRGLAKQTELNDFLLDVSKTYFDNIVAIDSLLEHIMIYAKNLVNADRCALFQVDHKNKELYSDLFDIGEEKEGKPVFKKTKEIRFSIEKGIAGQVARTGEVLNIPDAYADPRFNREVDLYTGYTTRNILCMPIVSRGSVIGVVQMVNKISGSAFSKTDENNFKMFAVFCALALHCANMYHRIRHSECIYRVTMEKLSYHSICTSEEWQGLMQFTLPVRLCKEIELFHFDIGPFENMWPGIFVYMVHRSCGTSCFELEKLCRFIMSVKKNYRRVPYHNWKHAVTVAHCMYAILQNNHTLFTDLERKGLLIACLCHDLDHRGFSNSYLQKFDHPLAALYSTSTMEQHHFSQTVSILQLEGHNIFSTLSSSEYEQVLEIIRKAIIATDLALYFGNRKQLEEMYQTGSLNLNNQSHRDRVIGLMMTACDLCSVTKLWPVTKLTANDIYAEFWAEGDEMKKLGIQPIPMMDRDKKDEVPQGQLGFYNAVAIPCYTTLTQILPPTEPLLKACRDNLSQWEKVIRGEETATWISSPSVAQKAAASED
Nature of the assay: Inhibition of human recombinant PDE10A ([3H]-cAMP SPA, Method B). Format: biochemical. Particulars: read-out: PDE10 inhibition IC50 [nM] PDE10A human. The protocol:
The gene was than inserted into a baculovirus vector, ligated with the baculovirus DNA. The enzyme-protein was expressed in SF21-cells. The enzyme was isolated from these cells by harvesting the cells by a centrifugation at 200 g to collect the cells. The cells were resuspended in 50 mM Tris-HCl/5 mM MgCl2 buffer (pH=7.4) and lysed by a sonication of the cells. The cytosolic PDE10A was obtained by a centrifugation at 48000 g for 1 h in the supernatant and stored at −70° C. PDE10 activity was determined in a one step procedure in microtiterplates. […] Nonspecific activity was tested without the enzyme. The reaction was initiated by addition of the substrate solution and was carried out at 37° C. for 30 minutes. Enzymatic activity was stopped by addition of 25 μl YSi-SPA-beads (Amersham-Pharmacia). One hour later the mixture was measured in a liquid scintillation counter for microtiterplates (Microbeta Trilux). To pipette the incubation mixture a robot Biomek (Fa. Beckman) is used. […] For determination of IC50 values the Hill-plot, 2-parameter-model, was used.
In the case of `Cc1ccccc1-c1nc(C)c2c(C)nc3ccc(OC(F)(F)F)cc3n12` [Example 118, 3,4-dimethyl-1-(2-methylphenyl)-8-(trifluoromethoxy)imidazo[1,5-a]quinoxaline], the IC50 was at most 10 nM.

In the case of `Cc1nc(-c2cccc(C(N)=O)c2)n2c1c(C)nc1ccc(OC(F)(F)F)cc12` [Example 120, 3-[3,4-dimethyl-8-(trifluoromethoxy)imidazo[1,5-a]quinoxalin-1-yl]benzamide], the IC50 is at most 10 nM.

In the case of `COc1ccncc1-c1nc(C)c2c(C)nc3ccc(C(F)(F)F)cc3n12` [Example 123, 1-(4-methoxypyridin-3-yl)-3,4-dimethyl-8-(trifluoromethyl)imidazo[1,5-a]quinoxaline], the IC50 was in the range of 10 to 100 nM.

In the case of `Cc1ccccc1-c1nc(C)c2c(C)nc3ccc(C(F)(F)F)cc3n12` [Example 125, 3,4-dimethyl-1-(2-methylphenyl)-8-(trifluoromethyl)imidazo[1,5-a]quinoxaline], the 50% inhibitory concentration (IC50) was 10 to 100 nM.

Take `COc1cc2nc(C)c3c(C)nc(-c4ccccc4C)n3c2cc1Cl` [Example 126, 8-chloro-7-methoxy-3,4-dimethyl-1-(2-methylphenyl)imidazo[1,5-a]quinoxaline]: the IC50 was at most 10 nM.

For the molecule `COc1cc2nc(C)c3c(C)nc(-c4ccncc4C)n3c2cc1Cl` [Example 127, 8-chloro-7-methoxy-3,4-dimethyl-1-(3-methylpyridin-4-yl)imidazo[1,5-a]quinoxaline], the half-inhibitory concentration (IC50) is at most 10 nM.

On to `COc1cc2nc(C)c3c(C)nc(-c4cnccc4C)n3c2cc1Cl` [Example 128, 8-chloro-7-methoxy-3,4-dimethyl-1-(4-methylpyridin-3-yl)imidazo[1,5-a]quinoxaline], for which the IC50 lay within 10 to 100 nM.

Turning to `COc1cc2nc(C)c3c(C)nc(-c4ccccc4Cl)n3c2cc1Cl` [Example 129, 8-chloro-1-(2-chlorophenyl)-7-methoxy-3,4-dimethylimidazo[1,5-a]quinoxaline], the IC50 is at most 10 nM.

As to `COc1cc2nc(C)c3c(C)nc(-c4cccnc4C)n3c2cc1Cl` [Example 130, 8-chloro-7-methoxy-3,4-dimethyl-1-(2-methylpyridin-3-yl)imidazo[1,5-a]quinoxaline], the half-maximal inhibitory concentration (IC50) is at most 10 nM.

For `COc1cc2nc(C)c3c(C)nc(-c4c(C)nn(C)c4C)n3c2cc1Cl` [Example 131, 8-chloro-7-methoxy-3,4-dimethyl-1-(1,3,5-trimethyl-1H-pyrazol-4-yl)imidazo[1,5-a]quinoxaline], the IC50 was at most 10 nM.

With `CCOc1cc2nc(C)c3c(C)nc(-c4ccccc4C)n3c2cc1Cl` [Example 132, 8-Chloro-7-ethoxy-3,4-dimethyl-1-(2-methylphenyl)imidazo[1,5-a]quinoxaline], the IC50 lay in the range of 10 to 100 nM.

For `COc1cccc2c1nc(C)c1c(C)nc(-c3ccccc3C)n12` [Example 133, 6-Methoxy-3,4-dimethyl-1-(2-methylphenyl)imidazo[1,5-a]quinoxaline], the IC50 is at most 10 nM.

As for `Cc1ccc(C(N)=O)cc1-c1nc(C)c2c(C)nc3ccc(F)cc3n12` [Example 134, 3-(8-fluoro-3,4-dimethylimidazo[1,5-a]quinoxalin-1-yl)-4-methylbenzamide], the IC50 lay within 10 to 100 nM.

For `Cc1nc(-c2ccc(F)c(C(N)=O)c2)n2c1c(C)nc1ccc(F)cc12` [Example 135, 2-fluoro-5-(8-fluoro-3,4-dimethylimidazo[1,5-a]quinoxalin-1-yl)benzamide], the half-maximal inhibitory concentration (IC50) was 10 to 100 nM.

Turning to `Cc1nc(-c2cc(F)cc(C(N)=O)c2)n2c1c(C)nc1ccc(F)cc12` [Example 136, 3-fluoro-5-(8-fluoro-3,4-dimethylimidazo[1,5-a]quinoxalin-1-yl)benzamide], the IC50 fell in the range of 10 to 100 nM.

`Cc1nc(-c2cc(C(N)=O)ccc2F)n2c1c(C)nc1ccc(F)cc12` [Example 137, 4-fluoro-3-(8-fluoro-3,4-dimethylimidazo[1,5-a]quinoxalin-1-yl)benzamide]: the concentration for half-maximal inhibition (IC50) lay within 10 to 100 nM.

On to `Cc1nc(F)ccc1-c1nc(C)c2c(C)nc3ccc(F)cc3n12` [Example 139, 8-fluoro-1-(6-fluoro-2-methylpyridin-3-yl)-3,4-dimethylimidazo[1,5-a]quinoxaline], for which the IC50 was at least 100 nM.

On to `COc1ccncc1-c1nc(C)c2c(C)nc3ccc(F)cc3n12` [Example 140, 8-fluoro-1-(4-methoxypyridin-3-yl)-3,4-dimethylimidazo[1,5-a]quinoxaline], for which the IC50 was at least 100 nM.

For the molecule `Cc1nc(-c2ccncc2)n2c1c(C)nc1ccc(F)cc12` [Example 143, 8-fluoro-3,4-dimethyl-1-pyridin-4-ylimidazo[1,5-a]quinoxaline], the 50% inhibitory concentration (IC50) was at least 100 nM.

On to `Cc1nc(-c2cccnc2)n2c1c(C)nc1ccc(F)cc12` [Example 144, 8-fluoro-3,4-dimethyl-1-pyridin-3-ylimidazo[1,5-a]quinoxaline], for which the IC50 was at least 100 nM.

Turning to `CCCc1nc(C)c2c(Cl)nc3ccc(OC)cc3n12` [Intermediate B1, 4-chloro-8-methoxy-3-methyl-1-propyl-imidazo[1,5-a]quinazoline], the IC50 was in the range of 10 to 100 nM.
